The text below walks through data of PMC8160934, “Different Biological Activities of Histidine-Rich Peptides Are Favored by Variations in Their Design” (Toxins, 2021).

Converted amounts (≈) assume the structure as drawn. Where a SMILES comes first, the peptide text is derived from it.

Experiment [1] relates to E. coli bacteria (ATCC 25922). The experiment in a line: Broth microdilution antibacterial assay (MIC) in Mueller–Hinton broth, pH 5. The conditions noted are these: for MIC50: E. coli, Mueller–Hinton broth pH 5, x50 from Origin fits of the growth curves of Figure 3 (concentration range 100 µM to 0.52 µM), fit error given, * error estimated in the range of the 1.5-fold dilution steps; for MIC: E. coli ATCC 25922, broth microdilution, Mueller–Hinton broth pH 5, 37 °C, 12 h, OD600, concentration at which bacterial growth reaches a minimum (at least 80% inhibited), average of two experiments, each in triplicate. Type of experiment: cell-based. As to the method: Therefore, the antibacterial properties of both series of peptides were analyzed in Mueller–Hinton (MH) broth at pH 5 by determining the minimal inhibitory concentrations (MICs).
Figure 3 Bacterial growth as a function of peptide concentration for the LAH4-Ln (A) and the LAH4-An series (B). The average of two experimental data sets (each data point derived from triplicates under the same experiment conditions) covering the concentration range 100 µM to 0.52 µM are shown by the relative bacterial growth when compared to bacteria in the absence of peptide (=100%). To guide the eye, the data have been fitted with the function ymin + (ymax − ymin)/(1 + (x/xo)^p)^s using the OriginPro software. […] The assay was performed in Mueller–Hinton broth, pH 5.
A broth microdilution assay was used to determine the minimal inhibitory concentration (MIC). A peptide aliquot of 1 mg was first solubilized in 50% ethanol (10 mM) then diluted in H2O to get a 300 μM peptide stock solution.
For all the activity tests, E. coli bacteria (ATCC® 25922^TM, Thermo Fisher Scientific, Courtaboeuf, France) were used. Briefly, some colonies from E. coli spread on gelose were resuspended in Mueller–Hinton broth, pH 7.4. After incubation at 37 °C for about 6 h this preculture was diluted to OD550nm = 0.2 in MH at pH5 and allowed to grow to reach the exponential phase (OD550nm = 1–2). After two-step dilution in MH pH5, the working bacteria suspension corresponding to 1.10^5–2.10^5 colony-forming units (CFU)/mL was obtained.
The antimicrobial testing was carried out in 96-well microplates (sterile polystyrene untreated with F-bottom, Thermo Scientific Nunc A/S, Roskilde, Denmark). The first column of the plate contains the highest final concentration (Cf) of peptide to test (two experiments were done: the first one starting at Cf 100 μM and a second one starting at 30 μM). All samples were added to the first column of the plate and subsequently spread onto the plate by a 1.5-fold dilution series in 10 steps. The last columns correspond to the positive and negative control conditions, respectively. Finally, the bacterial working suspension was distributed (50 μL at 1.10^5–2.10^5 CFU/mL in MH1X at pH 5) to each well except for the negative control (MH1X at pH5). The final volume was 100 μL/well and the range of peptide concentrations tested was from 100 μM to 1.73 μM for the first experiment and from 30 μM to 0.52 μM for the second experiment. The microplates were incubated at 37 °C for 12 h before bacterial growth was assessed by measuring the OD600. The initial bacterial density for each experiment was checked by spreading 100 μL of the working bacterial suspension, diluted 1/100 and 1/500 in MH1X, pH 5 on MH agar plates. After overnight incubation at 37 °C, the CFU were counted and the CFU/mL were determined. The percentage of bacterial growth compared to the positive control allows one to determine the MIC. The MIC values represent the average of the lowest tested peptide concentration (from both experiments) where most (at least 80%) of the bacterial growth is inhibited.

The subject of another experiment is U87 cells. The experiment in a line: DNA transfection with p-Luc plasmid, luciferase expression. The conditions noted are these: 1.5 µg pDNA with 7.5-25 µg peptide, 2 h 30 min, read one day post-transfection, mean of duplicates, result in words.
Another experiment has as its system HCT116 cells. The experiment can be described thus: Luciferase protein transduction. Format: cell-based, human. The note with it: HCT116, 2 µg recombinant luciferase with 10-32 µg peptide, 3 h in serum-free medium, mean of duplicates; result in words. The protocol:
To perform a rapid screening of the protein transduction activities of the two series of peptides, we selected to deliver the luciferase protein from Photinus pyralis, which has a molecular weight (MW) of 62 kDa and an isoelectric point (pI) of 6.3. Indeed, the measurement of the activity of this enzyme is fast and very sensitive. […] Increasing amounts of peptides were added to a fixed amount of luciferase, and after 3 h of incubation with the human colon cancer cells HCT116, enzymatic activity was measured.
Figure 1 Transduction of the luciferase protein. HCT116 cells in 48-well plates were treated with 2 µg of recombinant luciferase (Rec. Luc) (per duplicate) in the presence or absence of LAH4 peptides (LAH4-Ln series in (A) and LAH4-An series in (B)). After 3 h of incubation in serum-free medium, cells were washed once with 1 mL/well of phosphate buffer saline (PBS), lysed, and the luciferase activity was determined. […] For each peptide, four conditions were tested: 10, 16, 24 and 32 µg of peptide/2 µg recombinant luciferase, except for LAH4 (16, 24 and 32 µg). Non-complexed recombinant luciferase was used as the control (black bar). The hydrophilic angles are shown in italics. […] It is uncertain whether it counts as a property result. The luciferase activities are shown only as bars, with no printed numbers, and are left out.
Protein complexes were generated using increasing peptide/protein w/w ratios.
Then, 0.25 mL of serum-free medium containing the peptide/protein complexes was transferred into each well. After an incubation time of 3 h at 37 °C the medium was removed, cells were washed once with 1 mL/well of PBS, and then 100 μL of lysis buffer was added per well. Luciferase activity and protein content were measured as described above.

Procedure for U87 cells: In vitro cell transfection experiments were performed using the plasmid p-Luc (7.6 kb), which is an expression plasmid encoding the firefly luciferase gene under the control of the human cytomegalovirus (CMV) immediate–early promoter. In total, 55,000 U87 cells were plated in 48-well plates one day before the experiment was performed. For transfection, 0.25 mL of serum-free culture medium containing the DNA complexes was deposited into each well of the duplicate. After incubation for approximately 2 h 30 min at 37 °C the medium was replaced with a fresh one containing serum. Luciferase activity was measured as described below in the cell lysate one day after transfection.
Transfection complexes were prepared as follows: for a duplicate, 1.5 μg of plasmid DNA and the desired amount of peptide were each diluted into 25 μL of acetate buffer pH 5 and gently mixed. DNA complexes were generated using increasing peptide/DNA w/w ratios. After 20 min of incubation at room temperature, the mixture was diluted with culture medium to obtain a final volume of 0.5 mL.
For luciferase activity, cells were harvested in 100 μL of lysis buffer (8 mM MgCl2, 1 mM DTT, 1 mM EDTA, 0.6% Triton X-100, 15% glycerol, and 25 mM Tris-phosphate buffer pH 7.8). The cell lysate was then transferred into Eppendorf tubes and centrifuged for 7 min at 10,000× g to pellet debris. Luciferase light units were measured in a 96-well plate format with a Centro LB luminometer (Berthold) from an aliquot of the supernatant (2 μL) with 1 s integration after automatic injection of 50 μL assay buffer (lysis buffer without Triton X-100 but supplemented with 2 mM ATP) and 50 μL of a luciferin solution (167 μM in water). Luciferase background was subtracted from each value and the protein content of the transfected cells was measured by Bradford dye-binding using the BioRad protein assay (Bio-Rad). The transfection efficiency was expressed as light units/s/mg protein (light units measured over a period of 1 s, and the values were then normalized after measurement of the amount of protein present in each well). The reported values are the mean of duplicates. Error bars represent the standard deviation of the mean.
glioblastoma U87 cells. Increasing amounts of peptide were mixed with a constant amount of reporter
plasmid (1.5 µg per duplicate of pDNA) and the complexes were incubated for 2h 30min with the
cells plated in 48-well plates. The transfection medium was then removed and replaced with fresh
culture medium supplemented with 10% serum. Luciferase activity was measured one day post-
transfection. The transfection efficiency is expressed as light units/s/mg protein and the reported
values are the mean of duplicates. Error bars represent the standard deviation of the mean.

With `CC(C)C[C@H](NC(=O)[C@H](C)NC(=O)[C@H](CC(C)C)NC(=O)[C@H](Cc1c[nH]cn1)NC(=O)[C@H](Cc1c[nH]cn1)NC(=O)[C@H](C)NC(=O)[C@H](CC(C)C)NC(=O)[C@H](CC(C)C)NC(=O)[C@H](C)NC(=O)[C@H](C)NC(=O)[C@H](Cc1c[nH]cn1)NC(=O)[C@H](CC(C)C)NC(=O)[C@H](CC(C)C)NC(=O)[C@H](C)NC(=O)[C@H](CC(C)C)NC(=O)[C@H](Cc1c[nH]cn1)NC(=O)[C@H](CC(C)C)NC(=O)[C@H](CC(C)C)NC(=O)[C@H](C)NC(=O)[C@H](CCCCN)NC(=O)[C@@H](N)CCCCN)C(=O)N[C@@H](C)C(=O)N[C@@H](CC(C)C)C(=O)N[C@@H](CCCCN)C(=O)N[C@@H](CCCCN)C(=O)N[C@@H](C)C(N)=O` [LAH4-L4] (H-KKALLHLALLHAALLAHHLALALKKA-NH2), the MIC50 in experiment [1] was 0.8 µM (≈ 2.22 µg/mL).

`CC(C)C[C@H](NC(=O)[C@H](C)NC(=O)[C@H](C)NC(=O)[C@H](CC(C)C)NC(=O)[C@H](CC(C)C)NC(=O)[C@H](CC(C)C)NC(=O)[C@H](C)NC(=O)[C@H](CC(C)C)NC(=O)[C@H](Cc1c[nH]cn1)NC(=O)[C@H](CC(C)C)NC(=O)[C@H](CC(C)C)NC(=O)[C@H](C)NC(=O)[C@H](CCCCN)NC(=O)[C@@H](N)CCCCN)C(=O)N[C@@H](Cc1c[nH]cn1)C(=O)N[C@@H](C)C(=O)N[C@@H](Cc1c[nH]cn1)C(=O)N[C@@H](CC(C)C)C(=O)N[C@@H](C)C(=O)N[C@@H](C)C(=O)N[C@@H](CC(C)C)C(=O)N[C@@H](Cc1c[nH]cn1)C(=O)N[C@@H](CC(C)C)C(=O)N[C@@H](CCCCN)C(=O)N[C@@H](CCCCN)C(=O)N[C@@H](C)C(N)=O` [LAH4-L6] (H-KKALLHLALLLAALHAHLAALHLKKA-NH2): in experiment [1], the MIC entry is on record as “below 2 µM” and the MIC50 was 0.9 µM (≈ 2.5 µg/mL).

For “H-KKALLHALLAALLAHLHALLAHLKKA-NH2 [LAH4-A6, isomer of LAH4, LAH4-An series]”, the “DNA transfection activity (luciferase activity)” value (“DNA transfection activity” below) with U87 cells is reported as “high levels of activity”. Besides, the MIC50 in experiment [1] is 2.9 µM.

For the molecule “H-KKALLLAALHHLAALALHLAHLLKKA-NH2 [LAH4-A2, isomer of LAH4, LAH4-An series]”, in experiment [1], the MIC50 is 5 µM. Besides, in the experiment on HCT116 cells, the “luciferase protein transduction efficiency (luciferase activity, light units/s/mg protein)” value is reported as “the most efficient peptides”.

With `CC(C)C[C@H](NC(=O)[C@H](C)NC(=O)[C@H](C)NC(=O)[C@H](CC(C)C)NC(=O)[C@H](CC(C)C)NC(=O)[C@H](Cc1c[nH]cn1)NC(=O)[C@H](CC(C)C)NC(=O)[C@H](C)NC(=O)[C@H](Cc1c[nH]cn1)NC(=O)[C@H](C)NC(=O)[C@H](CC(C)C)NC(=O)[C@H](CC(C)C)NC(=O)[C@H](C)NC(=O)[C@H](CCCCN)NC(=O)[C@@H](N)CCCCN)C(=O)N[C@@H](C)C(=O)N[C@@H](CC(C)C)C(=O)N[C@@H](Cc1c[nH]cn1)C(=O)N[C@@H](CC(C)C)C(=O)N[C@@H](C)C(=O)N[C@@H](Cc1c[nH]cn1)C(=O)N[C@@H](CC(C)C)C(=O)N[C@@H](CC(C)C)C(=O)N[C@@H](CCCCN)C(=O)N[C@@H](CCCCN)C(=O)N[C@@H](C)C(N)=O` [LAH4-A1] (H-KKALLAHALHLLAALALHLAHLLKKA-NH2), the “DNA transfection activity” value in the experiment with U87 cells was “highest activity”. For the same molecule, in experiment [1], the MIC amounted to 25 µM (≈ 69.5 µg/mL) and the MIC50 is 13.9 µM (≈ 38.6 µg/mL). The “luciferase protein transduction efficiency (luciferase activity, light units/s/mg protein)” value with HCT116 cells is listed as “among the least efficient”.

In the case of “H-KKALLALALHHLALLALHLAHALKKA-NH2 [LAH4-L2, isomer of LAH4, LAH4-Ln series]”, the MIC50 in experiment [1] was 4.7 µM. In addition, the “luciferase protein transduction efficiency (luciferase activity, light units/s/mg protein)” value in the experiment on HCT116 cells is given as “the most efficient peptides”.

For the molecule `CC(C)C[C@H](NC(=O)[C@H](C)NC(=O)[C@H](Cc1c[nH]cn1)NC(=O)[C@H](C)NC(=O)[C@H](CC(C)C)NC(=O)[C@H](CC(C)C)NC(=O)[C@H](C)NC(=O)[C@H](CCCCN)NC(=O)[C@@H](N)CCCCN)C(=O)N[C@@H](C)C(=O)N[C@@H](Cc1c[nH]cn1)C(=O)N[C@@H](CC(C)C)C(=O)N[C@@H](C)C(=O)N[C@@H](CC(C)C)C(=O)N[C@@H](CC(C)C)C(=O)N[C@@H](C)C(=O)N[C@@H](CC(C)C)C(=O)N[C@@H](Cc1c[nH]cn1)C(=O)N[C@@H](CC(C)C)C(=O)N[C@@H](C)C(=O)N[C@@H](CC(C)C)C(=O)N[C@@H](Cc1c[nH]cn1)C(=O)N[C@@H](CC(C)C)C(=O)N[C@@H](CCCCN)C(=O)N[C@@H](CCCCN)C(=O)N[C@@H](C)C(N)=O` [LAH4-L0] (H-KKALLAHALAHLALLALHLALHLKKA-NH2), in experiment [1], the minimum inhibitory concentration (MIC) is given as 6 µM (≈ 16.7 µg/mL) and the MIC50 is 3.1 µM (≈ 8.61 µg/mL).

Regarding “H-KKALLALALHHLALLAHHLALALKKA-NH2 [LAH4-L3, isomer of LAH4, LAH4-Ln series]”, the MIC50 in experiment [1] is 1.4 µM.

For the molecule “H-KKALLHALLAHLAALLHALLAHLKKA-NH2 [LAH4-A5, isomer of LAH4, LAH4-An series]”, the “DNA transfection activity” value in the experiment with U87 cells is on record as “high levels of activity”. Further, the MIC50 in experiment [1] was 5.3 µM. Moreover, the “luciferase protein transduction efficiency (luciferase activity, light units/s/mg protein)” value in the experiment with HCT116 cells is “the most efficient peptides”.

Take `CC(C)C[C@H](NC(=O)[C@H](C)NC(=O)[C@H](C)NC(=O)[C@H](Cc1c[nH]cn1)NC(=O)[C@H](CC(C)C)NC(=O)[C@H](CC(C)C)NC(=O)[C@H](C)NC(=O)[C@H](CC(C)C)NC(=O)[C@H](Cc1c[nH]cn1)NC(=O)[C@H](CC(C)C)NC(=O)[C@H](CC(C)C)NC(=O)[C@H](C)NC(=O)[C@H](CCCCN)NC(=O)[C@@H](N)CCCCN)C(=O)N[C@@H](CC(C)C)C(=O)N[C@@H](C)C(=O)N[C@@H](Cc1c[nH]cn1)C(=O)N[C@@H](CC(C)C)C(=O)N[C@@H](C)C(=O)N[C@@H](C)C(=O)N[C@@H](CC(C)C)C(=O)N[C@@H](Cc1c[nH]cn1)C(=O)N[C@@H](CC(C)C)C(=O)N[C@@H](CCCCN)C(=O)N[C@@H](CCCCN)C(=O)N[C@@H](C)C(N)=O` [LAH4-L5] (H-KKALLHLALLHAALLAHLAALHLKKA-NH2): in experiment [1], the MIC result was “below 2 µM” and the MIC50 is 1.2 µM (≈ 3.33 µg/mL). Moreover, the “luciferase protein transduction efficiency (luciferase activity, light units/s/mg protein)” value in the experiment with HCT116 cells is listed as “the most efficient peptides”.

Regarding “H-KKALLLAALHHLLALAHHLAALLKKA-NH2 [LAH4-A3, isomer of LAH4, LAH4-An series]”, the MIC50 in experiment [1] was 7.5 µM.

The MIC50 is an inhibitory concentration at the 50% level, which refers to growth in some studies and to a panel of isolates in others. One may read the MIC as the lowest concentration that inhibits growth of the organism. Read a high MIC as a less susceptible organism.
